Measured values reported in ChEMBL document CHEMBL3137440, “DNDi T. cruzi fenarimol series dataset from which preclinical candidate EPL-BS0967 was identified (see also related datasets: CHEMBL3137386 and CHEMBL2448688)”.
In brackets after ≈: the same amount, converted by molar mass. Several values for one entry are separate records, joined by “and”; a condition that tells them apart may be missing. Equal entries are not always repeated.

Assays:
[1] = DNDI: Lipophilicity (gLogD) at pH 3; conditions: buffer
in vitro [2] = conditions: human, microsomes
[3] = DNDI: Cytotoxicity against L-6 rat myoblasts from skeletal musclE; conditions: L6 rat skeletal muscle myoblasts, IC50
Trypanosoma cruzi [4] = experiment: (§1) DNDI: Chagas in Vitro; format: functional, Tulahuen C4 (LacZ)
[5] = DNDI: Lipophilicity (gLogD) at pH 7.4; conditions: buffer
[6] = DNDI: Solubility in 0.01M HCl at pH 2 determined by nephelometry
in vitro [7] = conditions: human, microsomes; remark: listed apart in the source
[8] = DNDI: Solubility in phosphate buffer at pH 6.5 determined by nephelometry
Trypanosoma cruzi [9] = experiment: as §1; format: functional, organism-based, Tulahuen C4 (LacZ)
Leishmania donovani = experiment: DNDI: Inhibition of formation of Leishmania donovani; format: functional, MHOM/ET/67/L82; design: concentration or dose not given beside the values
in vitro [10] = conditions: human, microsomes; remark: listed apart in the source
Cytochrome P450 3A4 [11] = target: T1, Cytochrome P450 3A4 (Homo sapiens, UniProt P08684)
Cytochrome P450 3A4 [12] = target: T1, Cytochrome P450 3A4; remark: listed apart in the source
[13] = DNDI: Metabolism; format: ADME, Microsome; conditions: rat, microsomes; for hepatic extraction ratio: read-out: EH
[14] = Trypanosoma cruzi, Tulahuen C4 (LacZ)

T1 sequence (P08684 whole entry): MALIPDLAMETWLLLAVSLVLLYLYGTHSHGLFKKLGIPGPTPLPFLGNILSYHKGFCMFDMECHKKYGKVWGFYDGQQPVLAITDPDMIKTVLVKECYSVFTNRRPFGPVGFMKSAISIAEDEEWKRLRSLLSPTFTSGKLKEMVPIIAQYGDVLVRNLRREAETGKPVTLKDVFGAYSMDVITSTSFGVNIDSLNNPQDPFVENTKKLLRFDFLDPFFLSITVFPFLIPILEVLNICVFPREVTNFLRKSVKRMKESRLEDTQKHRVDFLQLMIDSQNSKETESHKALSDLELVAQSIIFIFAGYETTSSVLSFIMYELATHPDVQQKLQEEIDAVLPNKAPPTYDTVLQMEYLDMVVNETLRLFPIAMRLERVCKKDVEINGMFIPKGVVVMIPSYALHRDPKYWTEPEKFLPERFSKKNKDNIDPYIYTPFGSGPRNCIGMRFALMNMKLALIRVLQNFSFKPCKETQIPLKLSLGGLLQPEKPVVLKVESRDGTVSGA

SMILES	chromatographic logD ([1]; pH 3)	half-life (in vitro [2]) [min]	IC50 [3] [nM]	IC90 (Trypanosoma cruzi [4]; [14]) [nM]	chromatographic logD ([5]; pH 7.4)	solubility kinetic [6] [µg/mL]	microsomal CLint (in vitro [7]) [µL/min/mg]	solubility kinetic [8] [µg/mL]	IC50 (Trypanosoma cruzi [9]; [14]) [nM]	% inhibition (Leishmania donovani) [%]	hepatic extraction ratio (in vitro [10])	other results
FC(F)(F)c1ccc(N(c2cccnc2)C2CCN(c3ccc(Cl)cc3)CC2)cc1	> 5.3	51	> 100000	27	> 5.3	> 100	34	< 1.6	15			IC90 (Trypanosoma cruzi [4]): 25 nM; IC50 (Trypanosoma cruzi [9]): 22 nM
N#Cc1ccc(N(c2cccnc2)C2CCN(c3ccc(C(F)(F)F)cc3)CC2)cc1	4.6	43.9	> 100000	9			39.5	< 1.6	3	28.1		IC90 (Trypanosoma cruzi [4]): 10 nM
CS(=O)(=O)c1ccc(N2CCC(N(c3ccc(Cl)cc3)c3cccnc3)CC2)cc1	2.3	13.1		5.7	3.9	> 100	132	< 1.6	2.18		0.88	IC50 (Cytochrome P450 3A4 [11]): 2000 nM
CS(=O)(=O)c1ccc(N2CCC(N(c3ccc(C#N)cc3)c3cccnc3)CC2)cc1	2.7	111	> 100000	6.6	3		15.6	1.6 (≈ 3.7 µM)	2.35		0.47	
CC(C)(C)C(=O)N1CCC(N(c2ccc(C(F)(F)F)cc2)c2cccnc2)CC1	3.1	13.8		7.59	4.2	> 100	126	6.3 (≈ 15.5 µM)	2.66		0.88	IC50 (Cytochrome P450 3A4 [12]): 1900 nM; half-life [13]: 13.2 min; microsomal CLint [13]: 131 µL/min/mg; hepatic extraction ratio [13]: 0.81
FC(F)(F)c1ccc(N2CCC(N(c3ccc(C(F)(F)F)cc3)c3cccnc3)CC2)cc1				38					15	38.5		IC90 (Trypanosoma cruzi [4]): 28 nM and 41 nM; IC50 (Trypanosoma cruzi [9]): 23 nM and 16.5 nM
N#Cc1ccccc1N1CCC(N(c2ccc(C(F)(F)F)cc2)c2cccnc2)CC1	4.4	12.8		8		> 100	136	< 1.6	3	60.9	0.88	
N#Cc1ccc(N2CCC(N(c3ccc(C(F)(F)F)cc3)c3cccnc3)CC2)cc1	4.3	15.5	> 100000	13	4.7	50 (≈ 118 µM)	112	< 1.6	7	51.5		
Cc1ncsc1C(=O)N1CCC(N(c2ccc(C(F)(F)F)cc2)c2cccnc2)CC1	2.1	16.6	67400	11	3.3	> 100	105	12.5 (≈ 28 µM)	6.93		0.85	IC50 (Cytochrome P450 3A4 [12]): 2900 nM; half-life [13]: 28.1 min; microsomal CLint [13]: 61.8 µL/min/mg; hepatic extraction ratio [13]: 0.67
FC(F)(F)c1ccc(N(c2cccnc2)C2CCN(c3ccccc3)CC2)cc1	4.7	29.7	57400	30	> 5.3	> 100	58.4	< 1.6	14			
FC(F)(F)c1ccc(N(c2cccnc2)C2CCN(Cc3cccc(C(F)(F)F)c3)CC2)cc1			52100	72		> 100		3.1 (≈ 6.47 µM)	38			chromatographic logD ([1]; pH 3, logD): 2.5; half-life (in vitro [2]; t (1 / 2)): 26 min; chromatographic logD ([5]; pH 7.4, logD): > 5.3; microsomal CLint (in vitro [7]; CLint): 66 µL/min/mg
COc1ccc(CN2CCC(N(c3ccc(C(F)(F)F)cc3)c3cccnc3)CC2)cc1			16300	92		> 100		6.3 (≈ 14.3 µM)	57			chromatographic logD ([1]; pH 3, logD): 2; half-life (in vitro [2]; t (1 / 2)): 31 min; chromatographic logD ([5]; pH 7.4, logD): 4.9; microsomal CLint (in vitro [7]; CLint): 56 µL/min/mg
Fc1cnc(N2CCC(N(c3ccc(C(F)(F)F)cc3)c3cccnc3)CC2)nc1	4.2	49	53100	28	4.9	> 100	36	< 1.6	22			
